Measurements reported in PubChem BioAssay (NCI).
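All cell lines were grown in 96-well plates and treated with compound for 48 hours. The concentration for full growth arrest is given as TGI.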

Tests used:
Test in all cases: DTP human tumour cell line panel, 48 h
786-0 renal = tested on: 786-0 renal
ACHN renal = tested on: ACHN renal
CAKI-1 renal = tested on: CAKI-1 renal
NCI-H226 lung = tested on: NCI-H226 lung
OVCAR-3 ovarian = tested on: OVCAR-3 ovarian
PC-3 prostate = tested on: PC-3 prostate
SK-MEL-28 melanoma = tested on: SK-MEL-28 melanoma
SNB-19 CNS = tested on: SNB-19 CNS
SR leukemia = tested on: SR leukemia
DMS 273 small cell lung = tested on: DMS 273 small cell lung
LXFL 529 NSCLC = tested on: LXFL 529 NSCLC
XF 498 CNS = tested on: XF 498 CNS

CC(=O)OCC1OC(O[C@H]2C=C[C@@H](C(=O)OCc3ccccc3)n3c(=O)n(-c4ccccc4)c(=O)n32)C(OC(C)=O)C(OC(C)=O)C1OC(C)=O (stereo partly drawn)
TGI (786-0 renal): 4.51 µM | TGI (ACHN renal): 3.09 µM | TGI (CAKI-1 renal): 2.98 µM | TGI (NCI-H226 lung): 12.5 µM | TGI (OVCAR-3 ovarian): 3.18 µM | TGI (PC-3 prostate): 13 µM | TGI (SK-MEL-28 melanoma): 5.28 µM | TGI (SNB-19 CNS): 30.1 µM | TGI (SR leukemia): 5.92 µM

O=C(CC(=O)N1N=C(N(c2ccccc2)c2ccccc2)CC1c1ccccc1)Nc1cccc(Cl)c1 (stereo not drawn)
TGI (786-0 renal): > 100 µM | TGI (ACHN renal): > 100 µM | TGI (CAKI-1 renal): > 100 µM | TGI (NCI-H226 lung): > 100 µM | TGI (OVCAR-3 ovarian): > 100 µM | TGI (PC-3 prostate): > 100 µM | TGI (SK-MEL-28 melanoma): > 100 µM | TGI (SNB-19 CNS): > 100 µM | TGI (SR leukemia): > 100 µM

[O-][N+]1=C2CCC/C(=N/O)C2(O)C2CCCCC21N1CCOCC1 (stereo not drawn)
TGI (786-0 renal): > 100 µM | TGI (ACHN renal): > 100 µM | TGI (CAKI-1 renal): > 100 µM | TGI (NCI-H226 lung): > 100 µM | TGI (OVCAR-3 ovarian): > 100 µM | TGI (PC-3 prostate): > 100 µM | TGI (SK-MEL-28 melanoma): > 100 µM | TGI (SNB-19 CNS): > 100 µM | TGI (SR leukemia): > 100 µM

CC(C)C(=O)/C=C/c1c(Cl)cccc1Cl
TGI (786-0 renal): 20.1 µM | TGI (ACHN renal): 16.2 µM | TGI (CAKI-1 renal): 13.8 µM | TGI (NCI-H226 lung): 8.01 µM | TGI (OVCAR-3 ovarian): 6.56 µM | TGI (PC-3 prostate): 24.4 µM | TGI (SK-MEL-28 melanoma): 20.5 µM | TGI (SNB-19 CNS): 22.6 µM | TGI (SR leukemia): > 100 µM

c1ccc2c(c1)-c1ccccc1C2NC1=NCCO1
TGI (786-0 renal): 84.5 µM | TGI (ACHN renal): > 100 µM | TGI (CAKI-1 renal): 80.9 µM | TGI (NCI-H226 lung): 56.3 µM | TGI (OVCAR-3 ovarian): 67.8 µM | TGI (PC-3 prostate): 95.3 µM | TGI (SK-MEL-28 melanoma): 55.7 µM | TGI (SNB-19 CNS): > 100 µM | TGI (SR leukemia): 79.3 µM

COc1ccc2nc3cc(Cl)ccc3c(NCCCCCC(=O)NC(COc3ccc4ccc5cccnc5c4n3)COc3ccc4ccc5cccnc5c4n3)c2c1
TGI (786-0 renal): 28.8 µM | TGI (ACHN renal): 28.9 µM | TGI (CAKI-1 renal): 95.5 µM | TGI (NCI-H226 lung): 35.1 µM | TGI (OVCAR-3 ovarian): > 100 µM | TGI (PC-3 prostate): 28.4 µM | TGI (SK-MEL-28 melanoma): 49 µM | TGI (SNB-19 CNS): > 100 µM | TGI (SR leukemia): 12.3 µM

COc1cc(OC)c(/C=N\Nc2nc3ccccc3c(=O)n2-c2ccccc2)c(OC)c1
TGI (786-0 renal): 37.6 µM | TGI (ACHN renal): 38.8 µM | TGI (CAKI-1 renal): 38.3 µM | TGI (NCI-H226 lung): 44 µM | TGI (OVCAR-3 ovarian): 50.9 µM | TGI (PC-3 prostate): 53.7 µM | TGI (SK-MEL-28 melanoma): 87.2 µM | TGI (SNB-19 CNS): 78.6 µM | TGI (SR leukemia): > 100 µM

O=C(Nc1ccc(Cl)cc1)c1cc(S(=O)(=O)N2CCNNC2=O)c(S)cc1Cl
TGI (786-0 renal): > 100 µM | TGI (ACHN renal): > 100 µM | TGI (CAKI-1 renal): > 100 µM | TGI (NCI-H226 lung): > 100 µM | TGI (OVCAR-3 ovarian): > 100 µM | TGI (PC-3 prostate): > 100 µM | TGI (SK-MEL-28 melanoma): > 100 µM | TGI (SNB-19 CNS): > 100 µM | TGI (SR leukemia): > 100 µM

C=C(C)CCC(O)[C@](C)(O)[C@H]1[C@H](O)C[C@@]2(C)[C@@H]3CCc4c(cc(OC5OC(CO)C(O)C(O)C5O)c(O)c4C)C3(C)C(=O)C[C@]12C (stereo partly drawn)
TGI (786-0 renal): > 100 µM | TGI (ACHN renal): > 100 µM | TGI (CAKI-1 renal): > 100 µM | TGI (NCI-H226 lung): > 100 µM | TGI (OVCAR-3 ovarian): > 100 µM | TGI (PC-3 prostate): > 100 µM | TGI (SK-MEL-28 melanoma): > 100 µM | TGI (SNB-19 CNS): > 100 µM | TGI (SR leukemia): > 100 µM

O=CC1OC(=O)c2cc(O)c(O)c(O)c2-c2c(cc(O)c(O)c2O)C(=O)OC1C1OC(=O)c2cc(O)c(O)c(O)c2-c2c(O)c(O)c3oc(=O)c4c(c(O)c(O)c5oc(=O)c2c3c54)-c2c(cc(O)c(O)c2O)C(=O)OCC1O (stereo not drawn)
TGI (786-0 renal): 42.6 µM | TGI (ACHN renal): > 100 µM | TGI (CAKI-1 renal): 25.9 µM | TGI (NCI-H226 lung): > 100 µM | TGI (OVCAR-3 ovarian): > 100 µM | TGI (PC-3 prostate): > 100 µM | TGI (SK-MEL-28 melanoma): > 100 µM | TGI (SNB-19 CNS): > 100 µM | TGI (SR leukemia): > 100 µM

O=C(OCC(OC(=O)c1ccccc1)C1CC(C2(O)CCCCC2)C(=O)O1)c1ccccc1 (stereo not drawn)
TGI (786-0 renal): > 25 µM | TGI (ACHN renal): > 25 µM | TGI (CAKI-1 renal): > 25 µM | TGI (NCI-H226 lung): > 25 µM | TGI (OVCAR-3 ovarian): > 25 µM | TGI (PC-3 prostate): > 25 µM | TGI (SK-MEL-28 melanoma): > 25 µM | TGI (SNB-19 CNS): > 25 µM | TGI (SR leukemia): > 25 µM

C[C@@H]1CC[C@@]2(C)[C@H](C)/C(=C\COC(=O)/C=C/c3ccc(O)c(O)c3)CC[C@@]12C
TGI (786-0 renal): 17.6 µM | TGI (ACHN renal): 16.6 µM | TGI (CAKI-1 renal): 15 µM | TGI (NCI-H226 lung): 20.8 µM | TGI (OVCAR-3 ovarian): 21.6 µM | TGI (PC-3 prostate): 17.4 µM | TGI (SK-MEL-28 melanoma): 24.5 µM | TGI (SNB-19 CNS): 27.8 µM | TGI (SR leukemia): 6.93 µM

COc1ccc(CNc2nc3cc(C(F)(F)F)ccc3nc2C(=O)O)cc1
TGI (786-0 renal): 63.2 µM | TGI (ACHN renal): > 100 µM | TGI (CAKI-1 renal): > 100 µM | TGI (NCI-H226 lung): > 100 µM | TGI (OVCAR-3 ovarian): 34.1 µM | TGI (PC-3 prostate): > 100 µM | TGI (SK-MEL-28 melanoma): > 100 µM | TGI (SNB-19 CNS): > 100 µM | TGI (SR leukemia): 56.1 µM

CCCCCCCCCCCCc1ccsc1-c1ccc(-c2ccc(-c3sccc3CCCCCCCCCCCC)s2)s1
TGI (786-0 renal): > 100 µM | TGI (ACHN renal): > 100 µM | TGI (CAKI-1 renal): > 100 µM | TGI (NCI-H226 lung): > 100 µM | TGI (OVCAR-3 ovarian): > 100 µM | TGI (PC-3 prostate): > 100 µM | TGI (SK-MEL-28 melanoma): > 100 µM | TGI (SNB-19 CNS): > 100 µM | TGI (SR leukemia): > 100 µM

C#CCn1c(=O)ccn(/C(=C/C(=O)OCC)C(=O)OCC)c1=O
TGI (786-0 renal): 32.5 µM | TGI (ACHN renal): 3.21 µM | TGI (CAKI-1 renal): 3.05 µM | TGI (NCI-H226 lung): 39.7 µM | TGI (OVCAR-3 ovarian): 13.7 µM | TGI (PC-3 prostate): 28.1 µM | TGI (SK-MEL-28 melanoma): 21.6 µM | TGI (SNB-19 CNS): 40.7 µM | TGI (SR leukemia): > 100 µM

CN(C)NC1=NS(=O)(=O)c2cc3c(=O)n(C)[nH]c3cc2S1
TGI (786-0 renal): > 10 µM | TGI (ACHN renal): > 10 µM | TGI (CAKI-1 renal): > 10 µM | TGI (NCI-H226 lung): > 10 µM | TGI (OVCAR-3 ovarian): > 10 µM | TGI (PC-3 prostate): > 10 µM | TGI (SK-MEL-28 melanoma): > 10 µM | TGI (SNB-19 CNS): > 10 µM | TGI (SR leukemia): > 10 µM

O=C1c2ccccc2C(=O)N1NC1=NCCN1
TGI (786-0 renal): > 100 µM | TGI (ACHN renal): > 100 µM | TGI (CAKI-1 renal): > 100 µM | TGI (NCI-H226 lung): > 100 µM | TGI (OVCAR-3 ovarian): > 100 µM | TGI (PC-3 prostate): > 100 µM | TGI (SK-MEL-28 melanoma): > 100 µM | TGI (SNB-19 CNS): > 100 µM | TGI (SR leukemia): > 100 µM

CCCC(C(=O)OC)C1N=C(NC#N)N(Cc2ccccc2)C1=O (stereo not drawn)
TGI (786-0 renal): > 100 µM | TGI (ACHN renal): > 100 µM | TGI (CAKI-1 renal): > 100 µM | TGI (DMS 273 small cell lung): > 100 µM | TGI (LXFL 529 NSCLC): > 100 µM | TGI (OVCAR-3 ovarian): > 100 µM | TGI (SK-MEL-28 melanoma): > 100 µM | TGI (SNB-19 CNS): > 100 µM | TGI (SR leukemia): > 100 µM | TGI (XF 498 CNS): > 100 µM
